In patent US7700584B2 (Hangzhou Minsheng Pharmaceuticals Co., Ltd., priority 2004, dated 2010):
Values after ≈ are worked out from the molar mass of the structure shown. Counter-ions that a name gives are not always drawn. Like-named read-outs stand apart in the source and are kept apart here.

How the values were obtained:
[1] = tested on: U-937 human histocytic lymphoma; test: In vitro inhibition rate to tumor cells (MTT), U-937; assay type: cell-based; details: for inhibition at 50 µg/mL: Homo sapiens
[2] = tested on: A-549 human lung adenocarcinoma; test: In vitro inhibition rate to tumor cells (MTT), A-549; assay type: cell-based; details: for inhibition at 50 µg/mL: Homo sapiens
[3] = tested on: Bel-7402 human hepatic carcinoma; test: In vitro inhibition rate to tumor cells (MTT), Bel-7402; assay type: cell-based; details: for inhibition at 50 µg/mL: Homo sapiens
[4] = tested on: MCF-7 human mammary adenocarcinoma; test: In vitro inhibition rate to tumor cells (MTT), MCF-7; assay type: cell-based; details: for inhibition at 50 µg/mL: Homo sapiens
[5] = tested on: SMMC-7721 human hepatic carcinoma; test: In vitro inhibition rate to tumor cells (MTT), SMMC-7721; assay type: cell-based; details: Homo sapiens
[6] = tested on: Hela human cervical carcinoma; test: In vitro inhibition rate to tumor cells (MTT), Hela; assay type: cell-based; details: for inhibition at 50 µg/mL: Homo sapiens, HeLa
[7] = tested on: LLC mouse Lewis lung carcinoma; test: In vitro inhibition rate to tumor cells (MTT), LLC; assay type: cell-based; details: 50 μg/ml; for inhibition at 50 µg/mL: Mus musculus, Lewis lung carcinoma
[8] = tested on: Hela human cervical carcinoma; test: In vitro anti-tumor IC50 (MTT), Hela; assay type: cell-based; details: Homo sapiens, HeLa; Table 4; read-out: IC50 (ug/ml) against tumor cell lines, Hela
[9] = tested on: U-937 human histocytic lymphoma; test: In vitro anti-tumor IC50 (MTT), U-937; assay type: cell-based; details: Homo sapiens, U-937; Table 4; read-out: IC50 (ug/ml) against tumor cell lines, U-937
[10] = tested on: HL-60 human promyelocytic leukemia; test: In vitro anti-tumor IC50 (MTT), HL-60; assay type: cell-based; details: Homo sapiens, HL-60; Table 4; read-out: IC50 (ug/ml) against tumor cell lines, HL-60
[11] = molecular target: T1, HIV-1 proteinase (HIV-1 PR) (Human immunodeficiency virus type 1 group M subtype B, UniProt P04585); test: Screening for in vitro activity against HIV-1 proteinase; assay type: biochemical; details: for inhibition at 10 µg/mL: 10 μg/ml
T1 construct: HIV-1 proteinase digests the fluorescent-labeled substrate; purchased
Method in brief: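 Recombinant HIV-1 PR cleaves a fluorescent-labeled substrate in reaction buffer. Samples were dissolved in DMSO and serially diluted 5-fold in water (five dilutions), then added before the enzyme. Fluorescence of the product was read after incubation; indinavir was the positive control.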

[12] = molecular target: T2, HIV-1 integrase (HIV-1 IN) (Human immunodeficiency virus type 1 group M subtype B, UniProt P04585); test: Screening for the activity against HIV-1 integrase; assay type: biochemical; details: initial concentration 100 μg/ml; read-out: IC50
T2 construct: a purified HIV-1 integrase was added into each well; purchased
Method in brief: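 Purified HIV-1 integrase with plate-bound 30-nt donor oligonucleotide and biotinylated 20-nt target oligonucleotide; samples tested at four 5-fold serial dilutions. Strand-transfer product detected by ELISA with biotin-labeled alkaline phosphatase, read as OD450.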

293 cells = test: Cell status of 293 cells treated with sample alone (herpes virus screening); details: 200 μg/ml, 24 hrs
[13] = 50 μg/ml, Table 3 (repeated screening)
[14] = U-937, 50 μg/ml, Table 2 (repeated screening), read-out: inhibition rate, Results (%) U-937
[15] = A549, 50 μg/ml, Table 2 (repeated screening), read-out: inhibition rate, Results (%) A-549
[16] = Bel-7402, 50 μg/ml, Table 2 (repeated screening), read-out: inhibition rate, Results (%) Bel-7402
[17] = MCF7, 50 μg/ml, Table 2 (repeated screening), read-out: inhibition rate, Results (%) MCF-7
[18] = SMMC-7721, 50 μg/ml, Table 2 (repeated screening), read-out: inhibition rate, Results (%) SMMC-7721
[19] = 50 μg/ml, Table 2 (repeated screening), read-out: inhibition rate, Results (%) Hela

CC(C)C1CC23OC1(O)C/C(=C\Nc1ccc(O)cc1)C2CCC3C (stereo not drawn) [Compound 5, Curcumol p-hydroxy aniline]
inhibition rate, Results (%) U-937 [1, 13]: 91.03%
inhibition at 50 µg/mL [1, 14]: 95.6%
inhibition at 50 µg/mL ([1]; U-937, read-out: inhibition rate, Results (%) U-937, 50 μg/ml, Table 1): 94%
inhibition rate, Results (%) A-549 [2, 13]: 91.23%
inhibition at 50 µg/mL [2, 15]: 90%
inhibition at 50 µg/mL ([2]; A549, read-out: inhibition rate, Results (%) A-549, 50 μg/ml, Table 1): 90.3%
inhibition rate, Results (%) Bel-7402 [3, 13]: 78.97%
inhibition at 50 µg/mL [3, 16]: 81.5%
inhibition at 50 µg/mL ([3]; Bel-7402, read-out: inhibition rate, Results (%) Bel-7402, 50 μg/ml, Table 1): 80.2%
inhibition rate, Results (%) MCF-7 [4, 13]: 95.53%
inhibition at 50 µg/mL [4, 17]: 91%
inhibition at 50 µg/mL ([4]; MCF7, read-out: inhibition rate, Results (%) MCF-7, 50 μg/ml, Table 1): 90.3%
inhibition at 50 µg/mL [5, 18]: 86.9%
inhibition at 50 µg/mL ([5]; SMMC-7721, read-out: inhibition rate, Results (%) SMMC-7721, 50 μg/ml, Table 1): 85%
inhibition rate, Results (%) Hela [6, 13]: 94.55%
inhibition at 50 µg/mL [6, 19]: 92.3%
inhibition at 50 µg/mL ([6]; read-out: inhibition rate, Results (%) Hela, 50 μg/ml, Table 1): 94.4%
inhibition rate, Results (%) LLC ([7]; Table 1): 3.21%
inhibition rate, Results (%) LLC ([7]; Table 3 (repeated screening)): 86.54%
inhibition at 50 µg/mL ([7]; Table 2 (repeated screening)): 85.1%
IC50 [8]: 0.32 µg/mL (≈ 0.932 µM)
IC50 [9]: 0.42 µg/mL (≈ 1.22 µM)
IC50 [10]: 0.4 µg/mL (≈ 1.16 µM)
Inhibition rate ([11]; 0.08 μg/ml): 4.38
Inhibition rate ([11]; 0.40 μg/ml): 9.00
Inhibition rate ([11]; 2.0 μg/ml): 10.30
inhibition at 10 µg/mL ([11]; read-out: Inhibition rate): 11.2%
Inhibition rate ([11]; 50 μg/ml): 1.01
IC50 ([11]; five 5× serial dilutions from 50 μg/ml, read-out: IC50): > 146 µM
inhibition at 100 µg/mL [12]: < 50%
Cytopathy and cell status, Sample (293 cells): Good

CC(C)C1CC23OC1(O)CC(=CN1CCNCC1)C2CCC3C (stereo not drawn) [Compound 8, Curcumol piperazine hydrochloride]
inhibition at 50 µg/mL ([1]; U-937, 50 μg/ml, Table 1, read-out: inhibition rate, Results (%) U-937): 90.3%
inhibition at 50 µg/mL [1, 14]: 91.3%
inhibition at 50 µg/mL ([1]; U-937, 50 μg/ml, Table 3 (repeated screening), read-out: inhibition rate, Results (%) U-937): 94.4%
inhibition at 50 µg/mL ([2]; A549, 50 μg/ml, Table 1, read-out: inhibition rate, Results (%) A-549): 60.5%
inhibition at 50 µg/mL [2, 15]: 58.6%
inhibition at 50 µg/mL ([2]; A549, 50 μg/ml, Table 3 (repeated screening), read-out: inhibition rate, Results (%) A-549): 55.9%
inhibition at 50 µg/mL ([3]; Bel-7402, 50 μg/ml, Table 1, read-out: inhibition rate, Results (%) Bel-7402): 54.3%
inhibition at 50 µg/mL [3, 16]: 50.5%
inhibition at 50 µg/mL ([3]; Bel-7402, 50 μg/ml, Table 3 (repeated screening), read-out: inhibition rate, Results (%) Bel-7402): 54.9%
inhibition at 50 µg/mL ([4]; MCF7, 50 μg/ml, Table 1, read-out: inhibition rate, Results (%) MCF-7): 89.1%
inhibition at 50 µg/mL [4, 17]: 85.2%
inhibition at 50 µg/mL ([4]; MCF7, 50 μg/ml, Table 3 (repeated screening), read-out: inhibition rate, Results (%) MCF-7): 86.2%
inhibition at 50 µg/mL ([5]; SMMC-7721, 50 μg/ml, Table 1, read-out: inhibition rate, Results (%) SMMC-7721): 4.5%
inhibition at 50 µg/mL [5, 18]: 2.3%
inhibition at 50 µg/mL ([5]; SMMC-7721, 50 μg/ml, Table 3 (repeated screening), read-out: inhibition rate, Results (%) SMMC-7721): 7.98%
inhibition at 50 µg/mL ([6]; 50 μg/ml, Table 1, read-out: inhibition rate, Results (%) Hela): 91.9%
inhibition at 50 µg/mL [6, 19]: 92%
inhibition at 50 µg/mL ([6]; 50 μg/ml, Table 3 (repeated screening), read-out: inhibition rate, Results (%) Hela): 91.5%
inhibition at 50 µg/mL ([7]; Table 1): 12.1%
inhibition at 50 µg/mL ([7]; Table 2 (repeated screening)): 1.02%
inhibition at 50 µg/mL ([7]; Table 3 (repeated screening)): 3.12%
IC50 [8]: 0.59 µg/mL
IC50 [9]: 0.81 µg/mL
IC50 [10]: 1.68 µg/mL
inhibition at 0.08 µg/mL ([11]; 0.08 μg/ml, read-out: Inhibition rate): 9.74%
inhibition at 0.4 µg/mL ([11]; 0.40 μg/ml, read-out: Inhibition rate): 2.64%
inhibition at 2 µg/mL ([11]; 2.0 μg/ml, read-out: Inhibition rate): 5.27%
inhibition at 10 µg/mL ([11]; read-out: Inhibition rate): 0.62%
IC50 ([11]; IC50, five 5× serial dilutions from 50 μg/ml): > 156 µM
inhibition at 50 µg/mL ([11]; read-out: Inhibition rate, 50 μg/ml): 1.4%
inhibition at 100 µg/mL [12]: < 50%
Cytopathy and cell status, Sample (293 cells): Good
